Columns and labels:
[1] = tested on: HOP-62; assay: NCI human cancer cell line screen (COMPARE screening), Lung HOP-62; format: cell-based; conditions: Homo sapiens; HOP-62; concentration causing 50% growth inhibition; read-out: Cytotoxicity (G150 in μM) Lung HOP-62
Summary of the method: (§1)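 Each compound is tested in vitro across roughly 55 human cancer cell lines of diverse tumor origin in the NCI screen, and its antiproliferative (cytotoxic) activity is measured in each line.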

[2] = tested on: HCT-116; assay: NCI human cancer cell line screen (COMPARE screening), Colon HCT-116; format: cell-based; conditions: Homo sapiens; HCT-116; concentration causing 50% growth inhibition; read-out: Cytotoxicity (G150 in μM) Colon HCT-116
Summary of the method: as §1

[3] = tested on: UACC-62; assay: NCI human cancer cell line screen (COMPARE screening), Melanoma UACC-62; format: cell-based; conditions: Homo sapiens; UACC-62; concentration causing 50% growth inhibition; read-out: Cytotoxicity (G150 in μM) Melanoma UACC-62
Summary of the method: as §1

[4] = tested on: OVCAR-3; assay: NCI human cancer cell line screen (COMPARE screening), Ovarian OVCAR-3; format: cell-based; conditions: Homo sapiens; OVCAR-3; concentration causing 50% growth inhibition; read-out: Cytotoxicity (G150 in μM) Ovarian OVCAR-3
Summary of the method: as §1

[5] = tested on: DU-145; assay: NCI human cancer cell line screen (COMPARE screening), Prostate DU-145; format: cell-based; conditions: Homo sapiens; DU-145; concentration causing 50% growth inhibition; read-out: Cytotoxicity (G150 in μM) Prostate DU-145
Summary of the method: as §1

[6] = tested on: MDA-MB-435; assay: NCI human cancer cell line screen (COMPARE screening), Breast MDA-MB-435; format: cell-based; conditions: Homo sapiens; MDA-MB-435; concentration causing 50% growth inhibition; read-out: Cytotoxicity (G150 in μM) Breast MDA-MB-435
Summary of the method: as §1

[7] = tested on: approximately 55 different cancer cell lines of diverse tumor origins; assay: NCI screen mean graph midpoint over all cell lines tested; format: cell-based, human
[8] = biological target: T1, topoisomerase I (Homo sapiens, UniProt P11387); assay: Topoisomerase I-mediated DNA cleavage assay (3'-end-labeled 161 bp pBluescript SK(-) fragment); format: biochemical
T1 sequence (P11387 1-765): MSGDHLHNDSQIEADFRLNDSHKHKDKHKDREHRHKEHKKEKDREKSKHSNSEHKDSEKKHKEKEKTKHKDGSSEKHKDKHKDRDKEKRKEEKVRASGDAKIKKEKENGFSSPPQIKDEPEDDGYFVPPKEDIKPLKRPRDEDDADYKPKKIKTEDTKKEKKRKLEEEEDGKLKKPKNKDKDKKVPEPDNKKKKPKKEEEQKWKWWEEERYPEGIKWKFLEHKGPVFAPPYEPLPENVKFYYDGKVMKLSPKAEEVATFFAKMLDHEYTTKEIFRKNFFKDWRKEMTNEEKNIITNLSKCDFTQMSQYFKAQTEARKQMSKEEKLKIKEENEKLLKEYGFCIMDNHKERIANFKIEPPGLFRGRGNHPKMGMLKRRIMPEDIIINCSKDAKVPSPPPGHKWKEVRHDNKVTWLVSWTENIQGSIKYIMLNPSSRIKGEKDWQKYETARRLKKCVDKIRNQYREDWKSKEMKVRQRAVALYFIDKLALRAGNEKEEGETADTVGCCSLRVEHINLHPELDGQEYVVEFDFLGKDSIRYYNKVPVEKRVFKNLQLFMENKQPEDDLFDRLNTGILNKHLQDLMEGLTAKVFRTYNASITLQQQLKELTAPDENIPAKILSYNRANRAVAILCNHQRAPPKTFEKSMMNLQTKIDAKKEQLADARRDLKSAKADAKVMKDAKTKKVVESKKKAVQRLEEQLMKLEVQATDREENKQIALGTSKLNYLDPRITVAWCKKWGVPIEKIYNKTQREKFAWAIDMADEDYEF
Summary of the method: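 A 3′-end ³²P-labeled 161 bp Pvu II/Hind III pBluescript SK(−) fragment was incubated with topoisomerase I and drug for 15 min at 30° C, then stopped with 0.5% SDS. Cleavage products were resolved on a denaturing 16% polyacrylamide/7 M urea gel at 51° C and read by phosphorimaging.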

[9] = tested on: supercoiled SV40 DNA; assay: SV40 DNA unwinding assay; format: biochemical; conditions: supercoiled DNA in the presence of topoisomerase I
Procedure: With some of the compounds (e.g. 27), the activity seemed to increase initially as the concentration was increased, but then it declined at higher concentrations. […] The unwinding assay using supercoiled DNA in the presence of topoisomerase I is a simple procedure to detect DNA intercalation.
After electrophoresis, DNA bands were stained in 10 μg/mL of ethidium bromide and visualized by transillumination with UV light (300 nm).

[10] = tested on: human topoisomerase II; assay: Topoisomerase II-mediated DNA cleavage assay (5'-end-labeled human c-myc DNA); format: biochemical
[11] = biological target: T2, topoisomerase I cleavage complexes (Homo sapiens, UniProt P11387); assay: Salt reversal of topoisomerase I cleavage complexes; format: biochemical; conditions: increasing salt concentration
T2 sequence (P11387 1-765): T1 sequence (P11387 1-765)

## COc1cc2c3c(n(CCCCO)c(=O)c2cc1OC)-c1cc2c(cc1C3=O)OCO2 [Compound 19a, 5,6-Dihydro-5,11-diketo-6-(4-hydroxybut-1-yl)-2,3-dimethoxy-8,9-methylenedioxy-(11H)indeno[1,2-c]isoquinoline]
[1]
  IC50: 0.7 µM
[2]
  IC50: 1.4 µM
[3]
  IC50: 0.99 µM
[4]
  IC50: 3.7 µM
[5]
  IC50: 0.36 µM
[6]
  IC50: 10 µM
[7]; Homo sapiens, average GI50 for all cell lines tested (approximately 55), values outside test range taken as 10^-8 or 10^-4 molar, read-out: MGM (mean graph midpoint)
  IC50: 3200 nM
[7]; comparison in words
  cytotoxicity (MGM) relative to lead compound 1: lower MGM than the lead compound 1
[8]
  activity in the topoisomerase I cleavage assay (in words): rival the topoisomerase activity of 1
[8]; relative to the activity of 1 μM camptothecin
  Top 1 Cleavage: + (those compounds having between 20% and 50% of the activity of 1 μM camptothecin)
[9]
  DNA unwinding: does not appear to unwind DNA
[10]
  induction of topoisomerase II cleavage complexes: no effect
[11]
  reversal of induced cleavage sites by salt treatment: reversed by salt treatment
other
  melting point: 304 to 308 °C

From patent publication US6509344B1, “Indenoisoquinolines as antineoplastic agents” (The United States of America as represented by the …, priority 1998, dated 2003)
